The structures appear in SMILES notation. Values after ≈ are worked out from the molar mass of the structure shown. Values joined by “and” are separate entries in the source; they are usually repeats but may differ in a detail not shown here. Equal entries are not always repeated.

Series [1] in a line: Aqueous solubility by UV spectrophotometry. In kind it is physicochemical. The method, then: Scutellarin (1) and scutellarein (2) (300 μg) were dissolved in 25 mL CH3OH, and 3 (300 μg) was dissolved in 25 mL water. […] Each tested compound (250 μg) was ultrasound dissolved in 10 mL pure water for 1 h at 25 °C, and the solutions were stood for 30 min before centrifuging at the speed of 30,000 r/min. Absorbances of each compound were obtained by UV scanning, and the aqueous solubility of all three compounds were obtained through analysis of the standard curve.

In series [2] the test system is Platelet-poor plasma (PPP), thrombin time. Kind of series: Antithrombic assay: thrombin time (TT). In kind it is biochemical, New Zealand white rabbits. Conditions: rabbit PPP, compound 100 μM, mean ± SD n = 4, blank plasma 19.85 ± 1.59. The source says: (§1) According to our previous studies, the antithrombotic activity could be estimated by measuring the prolongation of the plasma clotting time of thrombin time (TT), activated partial thromboplastin time (APTT), international normalized ratio (INR) increase in prothrombin time (PT), and reduction in fibrinogen (FIB) content.
(§2) Male New Zealand white rabbits weighing 2–2.5 kg were obtained from the experimental animal center of Nanjing University of Chinese Medicine and were approved by Animal Ethics Committee of Nanjing University of Chinese Medicine. They were kept in plastic cages at 22 ± 2 °C with free access to pellet food and water and on a 12 h light/dark cycle. Animal welfare and experimental procedures were carried out in accordance with the guide for the care and use of laboratory animals (National Research Council of USA, 1996) and related ethical regulations of Nanjing University of Chinese Medicine. Rabbits were anesthetized with pentobarbital (50 mg/kg) and blood was drawn from the common carotid artery. Blood was collected into plastic tubes with 3.8% sodium citrate (citrate/blood: 1:9, v/v) for plasma anticoagulation. Platelet-poor plasma (PPP) was separated from blood by centrifugation at 3000 rpm for 10 min.
(§3) TT, APTT, PT, and FIB were tested with commercial kits following the manufacturer’s instructions by a coagulometer (Model LG-PABER-I, Steellex Co., Beijing, China). All the compounds were dissolved in PBS with 20% DMSO, and the concentration was 100 μM. TT was determined by incubating 40 μL PPP solution for 3 min at 37 °C, followed by addition of 40 μL thrombin solution and 20 μL sample for 3 min at 37 °C. APTT was determined by incubating 10 μL sample solution and 50 μL PPP solution with 50 μL APTT-activating agent for 3 min at 37 °C, followed by the addition of 50 μL CaCl2. PT was determined by incubating 40 μL PPP solution for 3 min at 37 °C, followed by the addition of 40 μL thromboplastin agent and 20 μL sample. FIB was determined by incubating 10 μL PPP solution with 90 μL imidazole buffer for 3 min at 37 °C, followed by addition of 50 μL FIB agent and 10 μL sample solution. By measuring the prolongation of the plasma clotting time of thrombin time (TT), activated partial thromboplastin time (APTT), INR increase in prothrombin time (PT), and reduction in fibrinogen (FIB) content, the antithrombotic activity was assessed.

In series [3] the test system is Platelet-poor plasma (PPP), prothrombin time. Kind of series: Antithrombic assay: prothrombin time (PT). Format: biochemical, New Zealand white rabbits. Conditions: rabbit PPP, compound 100 μM, mean ± SD n = 4, blank plasma 5.03 ± 0.24.
Excerpt: as §1, §2, §3

Series [4] can be described thus: DPPH-radical scavenging ability assay. Format: biochemical. Conditions: DPPH 80 μmol/L in DMSO, 30 min in the dark. The method, then: Antioxidants play important roles in removing free radicals, as antioxidants provide hydrogen to free radicals and prohibit the adverse reactions from destroying normal tissues. This assay was measured according to previous studies.
The following method was adopted to evaluate the 1,1-diphenyl-2-picrylhydrazyl (DPPH) scavenging property of the products: scutellarin (1), scutellarein (2), and 3 were dissolved in DMSO to result in final concentrations ranging from 16 to 250 μmol/L, and then DPPH (80 μmol/L, 100 μL) dissolved in DMSO was added in the testing samples. After incubating for 30 min in the dark, the scavenging effect was calculated according to the following equation:Scavenging effect (%) = [(1 − (A1 − A2)/A0] × 100%(1) where A0 is the absorbance of the control (without extract), A1 is the absorbance in the presence of the extract, and A2 is the absorbance without DPPH.
Background: DPPH is a stable violet radical that fades when it is reduced.

The test system of series [5] is Platelet-poor plasma (PPP), activated partial thromboplastin time. Nature of the series: Antithrombic assay: activated partial thromboplastin time (APTT). In kind it is biochemical, New Zealand white rabbits. Conditions: rabbit PPP, compound 100 μM, mean ± SD n = 4, blank plasma 29.83 ± 3.86.
Excerpt: as §1, §2, §3

In series [6] the test system is Platelet-poor plasma (PPP), fibrinogen. Nature of the series: Antithrombic assay: fibrinogen (FIB) content. In kind it is biochemical, New Zealand white rabbits. Conditions: rabbit PPP, compound 100 μM, mean ± SD n = 4, blank plasma 7.23 ± 0.38.
Excerpt: as §1, §2, §3

Details of series [7]: method as in PMID 16997537. Conditions: cited from earlier work.

As to `O=c1cc(-c2ccc(O)cc2)oc2cc(O)c(O)c(O)c12` [Scutellarein (2), 5,6,7-Trihydroxy-2-(4-hydroxyphenyl)-4H-chromen-4-one], the Solubility – broadly, how much of the substance goes into solution per volume – in series [1] (1 h) was found to be 6.85 µg/mL (≈ 23.9 µM). The TT in series [2] came to 24.48 ± 1.18 s; in series [2] (listed as scutellarein (2)), 24.48 s. Further, the PT in series [3] was 5.93 ± 0.81 s; in series [3] (listed as scutellarein (2)), 5.93 s. Besides, the IC50 (usually the concentration at which inhibition is half-maximal) in series [4] came out at 16.1 µM. In addition, the results for the APTT in series [5] and in series [5] (listed as scutellarein (2)) were 36.12 ± 2.20 s and 36.12 s, respectively. Further, the figures for the FIB in series [6] and in series [6] (listed as scutellarein (2)) were 6.91 ± 0.12 g/L and 6.91 g/L, respectively.

As for `O=C(O)[C@H]1O[C@@H](Oc2cc3oc(-c4ccc(O)cc4)cc(=O)c3c(O)c2O)[C@H](O)[C@@H](O)[C@@H]1O` [Scutellarin (1), 4′,5,6-trihydroxyflavone-7-glucuronide], the Solubility in series [1] (in pure water, 25 °C, UV spectrophotometry) is 7.62 µg/mL (≈ 16.5 µM). In addition, the TT in series [2] was found to be 23.25 ± 1.55 s; in series [2] (listed as scutellarin (1)) it was 23.25 s. In addition, the PT in series [3] was 6.25 ± 0.08 s; in series [3] (listed as scutellarin (1)) it was 6.25 s. The same molecule yielded a 50% inhibitory concentration (IC50) in series [4] of 17.9 µM. Further, the results for the APTT in series [5] and in series [5] (listed as scutellarin (1)) were 33.78 ± 2.32 s and 33.78 s, respectively. The aqueous solubility (in general, the concentration that dissolves in the medium under given conditions) in series [7] is 14.4 ± 0.17 µg/mL (≈ 31.1 µM). The FIB in series [6] came out at 6.41 ± 0.15 g/L; in series [6] (listed as scutellarin (1)) it was 6.41 g/L.

On to `O=c1cc(-c2ccc(O)cc2)oc2c(S(=O)(=O)O)c(O)c(O)c(O)c12` [compound 3, 5,6,7-Trihydroxy-2-(4-hydroxyphenyl)-4-oxo-4H-chromene-8-sulfonic acid], for which, in series [1] (25 °C, water, thermodynamic from solid), the solubility (in general, how much of the substance goes into solution per volume) at 1 h came out at 1950 µg/mL (≈ 5320 µM). In series [2], the TT was 23.71 s and 23.71 ± 1.82 s. Moreover, in series [3], the PT is 6.33 s and 6.33 ± 1.87 s. Besides, the 50% inhibitory concentration (IC50) in series [4] amounted to 16.8 µM. Besides, the APTT in series [5] was 30.33 s and 30.33 ± 1.06 s. In series [6], the FIB was 7.01 g/L and 7.01 ± 0.96 g/L.
